# PMC10638548 (Acta Pharmaceutica Sinica. B, 2023)
# What was measured:
# CYP2D6 = CYP2D6 (Homo sapiens, UniProt P10635); conditions: 20 μmol/L NMV, 10 pmol CYP, 1 mmol/L NADPH, 37 °C, 1 h
# CYP2C9 = CYP2C9 (Homo sapiens, UniProt P11712); conditions: 20 μmol/L NMV, 10 pmol CYP, 1 mmol/L NADPH, 37 °C, 1 h
# CYP2E1 = CYP2E1 (Homo sapiens, UniProt P05181); conditions: 20 μmol/L NMV, 10 pmol CYP, 1 mmol/L NADPH, 37 °C, 1 h
# [1] = hPXR/CYP3A mice pretreated with RCP (60 mg/kg, po, bid, 4 days), then oral RTV 20 mg/kg + NMV 60 mg/kg
# CYP2B6 = target: T1, CYP2B6 (Homo sapiens, UniProt P20813); conditions: 20 μmol/L NMV, 10 pmol CYP, 1 mmol/L NADPH, 37 °C, 1 h
# T1 sequence (P20813 1-491): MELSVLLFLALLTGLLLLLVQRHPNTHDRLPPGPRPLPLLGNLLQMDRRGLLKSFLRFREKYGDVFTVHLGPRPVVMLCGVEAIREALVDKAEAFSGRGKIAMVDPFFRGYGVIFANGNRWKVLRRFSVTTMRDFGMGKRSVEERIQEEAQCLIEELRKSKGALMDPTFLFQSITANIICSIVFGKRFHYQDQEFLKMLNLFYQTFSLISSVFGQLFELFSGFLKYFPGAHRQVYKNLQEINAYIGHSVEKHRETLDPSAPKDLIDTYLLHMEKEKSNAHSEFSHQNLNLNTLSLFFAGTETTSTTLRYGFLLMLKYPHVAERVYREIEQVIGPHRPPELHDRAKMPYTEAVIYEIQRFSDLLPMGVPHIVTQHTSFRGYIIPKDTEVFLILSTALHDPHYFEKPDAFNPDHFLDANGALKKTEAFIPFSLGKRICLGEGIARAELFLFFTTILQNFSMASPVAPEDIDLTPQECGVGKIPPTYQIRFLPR
# CYP2A6 = target: T2, CYP2A6 (Homo sapiens, UniProt P11509); conditions: 20 μmol/L NMV, 10 pmol CYP, 1 mmol/L NADPH, 37 °C, 1 h
# T2 sequence (P11509 1-494): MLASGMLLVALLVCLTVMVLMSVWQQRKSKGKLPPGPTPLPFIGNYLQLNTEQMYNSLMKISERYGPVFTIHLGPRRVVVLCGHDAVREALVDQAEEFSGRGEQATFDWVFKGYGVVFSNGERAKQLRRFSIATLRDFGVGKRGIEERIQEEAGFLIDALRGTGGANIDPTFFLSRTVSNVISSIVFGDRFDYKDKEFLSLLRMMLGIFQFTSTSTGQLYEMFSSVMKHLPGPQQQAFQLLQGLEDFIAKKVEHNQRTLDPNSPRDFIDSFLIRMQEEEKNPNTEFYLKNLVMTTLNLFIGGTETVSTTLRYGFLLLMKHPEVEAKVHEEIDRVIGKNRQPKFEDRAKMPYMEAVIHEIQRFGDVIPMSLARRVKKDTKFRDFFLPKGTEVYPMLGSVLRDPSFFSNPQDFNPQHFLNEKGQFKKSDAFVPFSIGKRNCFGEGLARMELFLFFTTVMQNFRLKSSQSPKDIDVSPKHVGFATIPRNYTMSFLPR
# [2] = 20 μmol/L NMV, 0.1 mg HLM, 1 mmol/L NADPH, 37 °C, 1 h
# CYP1A2 = target: T3, CYP1A2 (Homo sapiens, UniProt P05177); conditions: 20 μmol/L NMV, 10 pmol CYP, 1 mmol/L NADPH, 37 °C, 1 h
# T3 sequence (P05177 1-516): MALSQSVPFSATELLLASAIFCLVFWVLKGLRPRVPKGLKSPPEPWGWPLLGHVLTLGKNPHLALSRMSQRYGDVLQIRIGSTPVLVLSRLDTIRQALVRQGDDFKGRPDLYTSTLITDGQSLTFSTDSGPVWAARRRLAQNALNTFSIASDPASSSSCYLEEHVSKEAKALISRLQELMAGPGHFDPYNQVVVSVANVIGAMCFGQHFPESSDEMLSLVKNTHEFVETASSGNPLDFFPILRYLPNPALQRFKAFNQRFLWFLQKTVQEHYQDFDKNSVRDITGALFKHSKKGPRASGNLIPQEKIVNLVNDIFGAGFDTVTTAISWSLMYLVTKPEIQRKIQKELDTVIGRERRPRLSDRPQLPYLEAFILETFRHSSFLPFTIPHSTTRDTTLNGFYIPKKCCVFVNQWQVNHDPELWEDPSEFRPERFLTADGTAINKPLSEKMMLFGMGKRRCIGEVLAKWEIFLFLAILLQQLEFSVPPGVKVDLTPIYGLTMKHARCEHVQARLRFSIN
# [3] = cited from earlier work
# CYP3A4 = CYP3A4 (Homo sapiens, UniProt P08684); conditions: 20 μmol/L NMV, 10 pmol CYP, 1 mmol/L NADPH, 37 °C, 1 h
# CYP3A5 = CYP3A5 (Homo sapiens, UniProt P20815); conditions: 20 μmol/L NMV, 10 pmol CYP, 1 mmol/L NADPH, 37 °C, 1 h
# CYP2C19 = CYP2C19 (Homo sapiens, UniProt P33261); conditions: 20 μmol/L NMV, 10 pmol CYP, 1 mmol/L NADPH, 37 °C, 1 h
# CYP3A4 mRNA = conditions: hPXR/CYP3A mice; RIF 50 mg/kg in diet 7 days; RCP 60 mg/kg po bid 4 days
# CYP3A protein = conditions: RCP 60 mg/kg po bid 4 days
# [4] = clinical studies, co-administration of carbamazepine (CYP3A inducer) ref 16
# Chain of CYP3A4 (P08684 whole entry): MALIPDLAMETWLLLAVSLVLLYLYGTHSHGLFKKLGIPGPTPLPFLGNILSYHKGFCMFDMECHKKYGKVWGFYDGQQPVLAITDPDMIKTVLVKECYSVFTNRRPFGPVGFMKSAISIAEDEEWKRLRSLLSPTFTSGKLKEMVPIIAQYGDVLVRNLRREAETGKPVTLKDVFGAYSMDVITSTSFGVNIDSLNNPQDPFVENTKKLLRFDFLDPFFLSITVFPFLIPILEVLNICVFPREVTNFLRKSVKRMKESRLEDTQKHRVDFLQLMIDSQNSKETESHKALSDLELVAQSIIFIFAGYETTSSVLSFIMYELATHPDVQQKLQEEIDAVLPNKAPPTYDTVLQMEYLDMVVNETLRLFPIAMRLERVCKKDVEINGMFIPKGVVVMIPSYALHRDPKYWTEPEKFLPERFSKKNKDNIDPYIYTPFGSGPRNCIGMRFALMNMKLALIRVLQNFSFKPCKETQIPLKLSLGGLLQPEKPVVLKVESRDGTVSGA
# Chain of CYP2C19 (P33261 whole entry): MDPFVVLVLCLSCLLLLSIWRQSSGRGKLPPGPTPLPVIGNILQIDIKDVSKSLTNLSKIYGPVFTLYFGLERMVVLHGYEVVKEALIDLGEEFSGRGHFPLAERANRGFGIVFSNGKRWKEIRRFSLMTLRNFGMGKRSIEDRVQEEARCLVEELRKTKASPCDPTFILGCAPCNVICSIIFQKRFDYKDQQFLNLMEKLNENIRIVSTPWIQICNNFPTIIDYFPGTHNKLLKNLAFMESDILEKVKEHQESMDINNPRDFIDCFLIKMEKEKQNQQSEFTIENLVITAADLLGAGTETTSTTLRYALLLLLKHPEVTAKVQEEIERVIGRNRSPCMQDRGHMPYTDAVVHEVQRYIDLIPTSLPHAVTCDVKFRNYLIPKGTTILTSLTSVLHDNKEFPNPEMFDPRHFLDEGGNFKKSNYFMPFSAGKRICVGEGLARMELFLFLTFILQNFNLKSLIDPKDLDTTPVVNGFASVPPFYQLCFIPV
# Chain of CYP2C9 (P11712 whole entry): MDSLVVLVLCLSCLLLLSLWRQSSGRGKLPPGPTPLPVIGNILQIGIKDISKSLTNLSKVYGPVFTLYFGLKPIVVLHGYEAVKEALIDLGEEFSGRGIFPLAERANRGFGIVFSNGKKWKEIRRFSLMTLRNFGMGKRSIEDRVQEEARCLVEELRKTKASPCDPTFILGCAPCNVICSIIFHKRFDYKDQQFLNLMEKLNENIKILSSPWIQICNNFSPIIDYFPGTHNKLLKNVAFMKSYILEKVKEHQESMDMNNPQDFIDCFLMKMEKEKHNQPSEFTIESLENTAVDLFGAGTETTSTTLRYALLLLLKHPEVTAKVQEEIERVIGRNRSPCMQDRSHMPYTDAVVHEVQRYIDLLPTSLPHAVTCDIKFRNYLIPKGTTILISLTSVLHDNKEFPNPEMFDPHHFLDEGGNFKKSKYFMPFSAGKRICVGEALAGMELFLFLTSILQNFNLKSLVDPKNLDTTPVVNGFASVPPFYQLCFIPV
# Chain of CYP2E1 (P05181 whole entry): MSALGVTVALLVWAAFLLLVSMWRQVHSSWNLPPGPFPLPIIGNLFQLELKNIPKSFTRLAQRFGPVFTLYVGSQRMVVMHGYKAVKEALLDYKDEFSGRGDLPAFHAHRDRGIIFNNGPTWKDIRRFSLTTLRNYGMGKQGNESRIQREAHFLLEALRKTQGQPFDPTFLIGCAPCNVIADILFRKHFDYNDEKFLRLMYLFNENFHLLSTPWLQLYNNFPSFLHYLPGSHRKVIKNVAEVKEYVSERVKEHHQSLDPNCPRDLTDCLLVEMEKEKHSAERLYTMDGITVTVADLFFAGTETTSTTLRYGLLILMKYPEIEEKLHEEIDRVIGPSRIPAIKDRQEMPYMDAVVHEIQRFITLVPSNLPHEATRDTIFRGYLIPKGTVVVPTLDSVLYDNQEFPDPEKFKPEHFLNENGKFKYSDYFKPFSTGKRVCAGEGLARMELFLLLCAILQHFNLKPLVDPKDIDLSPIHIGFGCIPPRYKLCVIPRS
# Chain of CYP2D6 (P10635 whole entry): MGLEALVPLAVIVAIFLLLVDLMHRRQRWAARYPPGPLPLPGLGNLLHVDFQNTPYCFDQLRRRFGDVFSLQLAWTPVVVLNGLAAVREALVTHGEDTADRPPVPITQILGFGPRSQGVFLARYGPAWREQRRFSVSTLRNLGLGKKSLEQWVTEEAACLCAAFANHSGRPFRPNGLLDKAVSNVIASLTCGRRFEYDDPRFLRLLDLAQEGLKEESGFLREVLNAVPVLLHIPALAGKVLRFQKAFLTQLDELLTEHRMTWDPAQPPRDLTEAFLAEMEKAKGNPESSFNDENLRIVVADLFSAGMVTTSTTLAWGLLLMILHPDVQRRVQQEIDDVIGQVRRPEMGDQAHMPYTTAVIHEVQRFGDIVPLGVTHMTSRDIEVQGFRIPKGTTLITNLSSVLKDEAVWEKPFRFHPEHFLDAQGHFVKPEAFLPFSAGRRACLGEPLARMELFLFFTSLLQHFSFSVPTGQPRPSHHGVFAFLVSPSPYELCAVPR
# Chain of CYP3A5 (P20815 whole entry): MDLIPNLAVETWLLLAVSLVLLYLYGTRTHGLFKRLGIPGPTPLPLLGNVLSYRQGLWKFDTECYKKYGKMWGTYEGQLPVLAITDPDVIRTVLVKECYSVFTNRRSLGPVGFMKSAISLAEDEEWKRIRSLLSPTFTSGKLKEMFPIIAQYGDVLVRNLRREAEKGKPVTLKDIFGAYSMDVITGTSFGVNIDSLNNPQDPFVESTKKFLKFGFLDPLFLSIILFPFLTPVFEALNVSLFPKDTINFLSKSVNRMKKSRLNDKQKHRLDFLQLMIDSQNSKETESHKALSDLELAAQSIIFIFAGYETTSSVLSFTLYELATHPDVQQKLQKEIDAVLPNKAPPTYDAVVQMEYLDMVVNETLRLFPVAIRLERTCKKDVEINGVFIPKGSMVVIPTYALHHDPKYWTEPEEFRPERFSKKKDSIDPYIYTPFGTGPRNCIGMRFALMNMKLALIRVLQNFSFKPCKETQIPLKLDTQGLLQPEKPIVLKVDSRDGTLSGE
Compound,contribution of CYP2D6 to NMV metabolism (CYP2D6),contribution of CYP2C9 to NMV metabolism (CYP2C9),contribution of CYP2E1 to NMV metabolism (CYP2E1),change of AUC in serum vs control group (in words) [1],change of Cmax in serum vs control group (in words) [1],contribution of CYP2B6 to NMV metabolism (CYP2B6),contribution of CYP2A6 to NMV metabolism (CYP2A6),number of NMV metabolites identified in the incubation with HLM [2],contribution of CYP1A2 to NMV metabolism (CYP1A2),"decrease in AUC of NMV [3, 4] [%]","decrease in Cmax of NMV [3, 4] [%]","reduction for NMV exposure ([3]; healthy subjects, CYP3A4 inducer carbamazepine, Paxlovid fact sheet ref 16) [%]","change of NMV (systemic) exposure (in words) ([3]; healthy subjects, CYP3A4 inhibitor itraconazole, Paxlovid fact sheet ref 16)",contribution of CYP3A4 to NMV metabolism (formation of M1–M7) (CYP3A4),contribution of CYP3A5 to NMV metabolism (formation of M1–M7) (CYP3A5),contribution of CYP2C19 to NMV metabolism (CYP2C19),mRNA expression of CYP3A4 in the liver vs control (CYP3A4 mRNA),increase of protein level of CYP3A in the liver vs control (CYP3A protein; Pxr-null/CYP3A mice),"protein level of CYP3A in the liver vs control (CYP3A protein; hPXR/CYP3A mice, RIF 50 mg/kg in diet 7 days)"
"CC(C)(C)[C@H](NC(=O)C(F)(F)F)C(=O)N1C[C@H]2[C@@H]([C@H]1C(=O)N[C@H](C#N)C[C@@H]1CCNC1=O)C2(C)C [NMV, nirmatrelvir]",did not contribute to NMV metabolism,did not contribute to NMV metabolism,did not contribute to NMV metabolism,significantly decreased,significantly decreased,did not contribute to NMV metabolism,did not contribute to NMV metabolism,7,did not contribute to NMV metabolism,~50,~50,~50,increased the systemic exposure of NMV,contributed the most to all the 7 metabolic pathways of NMV,"also involved in the 7 metabolic pathways of NMV, especially for the production of M4 and M5",did not contribute to NMV metabolism,,,
"CC[C@H]1CN2CC[C@]3(C(=O)Nc4ccccc43)[C@@H]2C[C@@H]1/C(=C\OC)C(=O)OC [RCP, rhynchophylline]",,,,,,,,,,,,,,,,,significantly upregulated,but not in Pxr-null/CYP3A mice,increased the protein level of CYP3A
"CC(C)c1nc(CN(C)C(=O)N[C@H](C(=O)N[C@@H](Cc2ccccc2)C[C@H](O)[C@H](Cc2ccccc2)NC(=O)OCc2cncs2)C(C)C)cs1 [RTV, ritonavir]",,,,also decreased,also decreased,,,,,,,,,,,,,,
